Source: patent US4065570A (priority 1975, dated 1977)
Read-outs that look alike come from different tables or passages of the source.

Tests used:
Polio I = experiment: organism not typed; format: cell-based; conditions: Vero
Echo 11 = format: cell-based; conditions: Echo 11, Primary Monkey Kidney Cells, 178 TCID50
Procedure: (§1) In preparing the compounds for testing, they were handled aseptically throughout. The compounds were dissolved in a minimum amount of a suitable solvent, and the final dilutions were made up to the required volume in a complete culture medium in a concentration not exceeding the predetermined maximum non-cytotoxic levels.
(§2) The cell cultures used in all primary in vitro antipicorna virus screening tests were an established cell line of the African green monkey kidney (VERO), a primary cell culture of the Cercopythecus monkey kidney, or human embryonic lung diploid cells WI-38.
(§3) Standard batches of the viruses were made by growing the virus in an appropriate cell culture and then making a pool which was dispersed in ampoules and kept frozen at -76° C until used. The titer of each virus was determined in the cell cultures used.
(§4) The cells were grown in test tubes in a suitable medium. Immediately before use the initial medium was replaced with the one which contained the test compound in an appropriate concentration. After the virus was added, the infected culture was incubated at 37° C for a number of days and the cytopathic effect of the virus observed and recorded. The results were read every day in all of the tubes and the destruction of cells assessed in precentage of the cell sheet destroyed: 0-25-50-75-100%. As controls, cells with only virus (for cytopathic effect) or with only the compound (for cytotoxic effect) were used as well as the normal, uninfected cells (no cytotoxic -- no cytopathic effects).
(§5) Net difference in cytopathic effect between treated and control tubes expressed in percentage give the extent of the inhibitory activity of the substance.
(§6) The TCID50 represents the tissue culture infective dose of virus that will destroy 50% of the cells.

Echo 9 = format: cell-based; conditions: Echo 9, Vero, 31.6 TCID50
Procedure: as §1, §2, §3, §4, §5, §6

Vero cells = experiment: cytotoxicity against Vero cells; format: cell-based, African green monkey; conditions: for Toxicity (%): Vero
Procedure: as §1, §2
(§7) The cytotoxic stuides were performed on each of the compounds to determine the level of response of the cells used to the potentially toxic action of the substances.
as §4

[1] = system: primary monkey kidney cells; experiment: cytotoxicity against primary monkey kidney cells; format: cell-based, Cercopythecus monkey; conditions: for Toxicity (%): pMK
Procedure: as §1, §2, §7, §4

mice = experiment: LD50 in mice; format: in vivo
[2] = system: Mahoney strain of Polio virus; format: in vivo, Cynomolgus monkey
[3] = system: viruses of the Picorna group; experiment: antiviral activity (general statements); format: cell-based; conditions: result in words
Procedure: The in vitro activity of representative compounds of the present invention are set forth below.
as §1, §2, §4, §5

Cynomolgus monkeys = conditions: cynomolgus monkey, in vivo, 25 mg/kg/day
[4] = Virus + Substance, 25 mg/kg/day, i.p. or s.c.
[5] = Virus + Substance, 25 mg/kg/day, 4th Day
[6] = Virus + Substance, 25 mg/kg/day, 8th Day
[7] = Virus + Substance, 25 mg/kg/day, 11th Day
[8] = Virus + Substance, 25 mg/kg/day, 15th Day

Acetylated 5-(3',4',-Dimethoxybenzal) hydantoin [Example 14]
% Inhibition (Polio I; 316 TCID50, 0.5 μg/ml): 93% | % Inhibition (Polio I; 316 TCID50, 1 μg/ml): 100% | % Inhibition (Polio I; 316 TCID50, 5 μg/ml): 100% | % Inhibition (Polio I; 316 TCID50, 10 μg/ml): 100% | % Inhibition (Echo 11; 0.1 μg/ml): 7% | % Inhibition (Echo 11; 0.3 μg/ml): 32% | % Inhibition (Echo 11; 0.7 μg/ml): 32% | % Inhibition (Echo 11; 1.0 μg/ml): 68% | % Inhibition (Echo 11; 3.3 μg/ml): 100% | % Inhibition (Echo 11; 6.7 μg/ml): 100% | % Inhibition (Echo 11; 10 μg/ml): 100% | % Inhibition (Echo 11; 25 μg/ml): 100% | % Inhibition (Echo 11; 50 μg/ml): 100% | % Inhibition (Echo 11; 100 μg/ml): 100% | % Inhibition (Echo 9; 0.1 μg/ml): 8% | % Inhibition (Echo 9; 0.3 μg/ml): 29% | % Inhibition (Echo 9; 0.7 μg/ml): 42% | % Inhibition (Echo 9; 1.0 μg/ml): 71% | % Inhibition (Echo 9; 3.3 μg/ml): 92% | % Inhibition (Echo 9; 6.7 μg/ml): 100% | % Inhibition (Echo 9; 10.0 μg/ml): 100% | Cytotoxicity CTD50 (Vero cells; Vero cells, 50% inhibition of the cell growth): > 100 µg/mL | Cytotoxicity CTD0 (Vero cells; Vero cells, maximal non-toxic concentration): > 10 µg/mL | Toxicity (%) (Vero cells; 0.1 micrograms/ml): 0% | Toxicity (%) (Vero cells; 0.3 micrograms/ml): 0% | Toxicity (%) (Vero cells; 0.7 micrograms/ml): 0% | Toxicity (%) (Vero cells; 1.0 micrograms/ml): 0% | Toxicity (%) (Vero cells; 3.3 micrograms/ml): 0% | Toxicity (%) (Vero cells; 6.7 micrograms/ml): 0% | Toxicity (%) (Vero cells; 10 micrograms/ml): 10% | Toxicity (%) (Vero cells; 25 micrograms/ml): 10% | Toxicity (%) (Vero cells; 33.3 micrograms/ml): 10% | Toxicity (%) (Vero cells; 50 micrograms/ml): 10% | Toxicity (%) (Vero cells; 66.7 micrograms/ml): 10% | Toxicity (%) (Vero cells; 75 micrograms/ml): 10% | Toxicity (%) (Vero cells; 100 micrograms/ml): 10% | Toxicity (%) (Vero cells; 150 micrograms/ml): 10% | Toxicity (%) (Vero cells; 200 micrograms/ml): 25% | Toxicity (%) (Vero cells; 250 micrograms/ml): 75% | Toxicity (%) (Vero cells; 300 micrograms/ml): 100% | Cytotoxicity CTD50 ([1]; Primary Monkey Kidney Cells, 50% inhibition of the cell growth): > 100 µg/mL | Cytotoxicity CTD0 ([1]; Primary Monkey Kidney Cells, maximal non-toxic concentration): > 100 µg/mL | Toxicity (%) ([1]; 0.1 micrograms/ml): 0% | Toxicity (%) ([1]; 0.3 micrograms/ml): 0% | Toxicity (%) ([1]; 0.7 micrograms/ml): 0% | Toxicity (%) ([1]; 1.0 micrograms/ml): 0% | Toxicity (%) ([1]; 3.3 micrograms/ml): 0% | Toxicity (%) ([1]; 6.7 micrograms/ml): 0% | Toxicity (%) ([1]; 10 micrograms/ml): 0% | Toxicity (%) ([1]; 25 micrograms/ml): 0% | Toxicity (%) ([1]; 33.3 micrograms/ml): 0% | Toxicity (%) ([1]; 50 micrograms/ml): 0% | Toxicity (%) ([1]; 66.7 micrograms/ml): 0% | Toxicity (%) ([1]; 75 micrograms/ml): 0% | Toxicity (%) ([1]; 100 micrograms/ml): 0% | Toxicity (%) ([1]; 150 micrograms/ml): 10% | Toxicity (%) ([1]; 200 micrograms/ml): 75% | Toxicity (%) ([1]; 250 micrograms/ml): 100% | Toxicity (%) ([1]; 300 micrograms/ml): 100% | subacute LD50 (mice; intraperitoneal, daily injection during 16 days): 400 to 500 mg/kg | LD50 (mice; oral administration): greater than 1,300 mg/kg | effectiveness against the Mahoney Polio virus strain in the infected animals ([2]; Cynomolgus monkeys, result in words): effective against the Mahoney Polio virus strain in the infected animals | Average Day of Paralysis [2, 4]: 13.5 | Cumulative morbidity, paralyses, % [2, 4]: 25.0% | Cumulative morbidity, paralyses, No. [2, 4]: 2/8 | Histopathological changes as brain, % [2, 4]: 20.0% | Histopathological changes as brain, No. [2, 4]: 2/10 | Presence of poliovirus in rectal, % [2, 5]: 36.4% | Presence of poliovirus in rectal, No. [2, 5]: 4/11 | Presence of poliovirus in rectal, % [2, 6]: 25.0% | Presence of poliovirus in rectal, No. [2, 6]: 2/8 | Presence of poliovirus in rectal, % [2, 7]: 25.0% | Presence of poliovirus in rectal, No. [2, 7]: 2/8 | Presence of poliovirus in rectal, % [2, 8]: 16.7% | Presence of poliovirus in rectal, No. [2, 8]: 1/6 | degree of antiviral activity [3]: greater degree of antiviral activity than the unacetylated compound | Cumulative morbidity, paralyses, % (Cynomolgus monkeys): 0% | Cumulative morbidity, paralyses, No. (Cynomolgus monkeys): 0/5 | Histopathological changes as brain, % (Cynomolgus monkeys): 0% | Histopathological changes as brain, No. (Cynomolgus monkeys): 0/5
